Data set [1] can be described thus: in vitro. As to conditions: human, Caco-2, pH 7.4. The essentials: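 Compound at 10 μM in HBSS pH 7.4 dosed A-to-B and B-to-A across Caco-2 monolayers, 90 min at 37 °C, duplicates. Monolayer integrity by TEER and lucifer yellow (5 μM, fluorescence 485/535 nm); compound quantified by LC-MS/MS.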
The target in data set [2] is T1, CXCR4 (U87.CXCR4 cells) (Homo sapiens, UniProt P61073).
T1 construct: expressed in transfected cells; host or cells: U87 (U87.CXCR4)
The data set can be described thus: Intracellular CXCL-12-induced calcium mobilization assay (FLIPR). Format: cell-based. As to conditions: CXCL-12 25-50 ng/mL, read-out: IC50 CXCL-12 Ca2+ flux U87.CXCR4+. The essentials:
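U87.CXCR4 cells were loaded with 4 μM Fluo-2 AM for 45 min at 37 °C in HBSS/20 mM HEPES/0.2% BSA, pH 7.4. Calcium flux induced by CXCL-12 (25-50 ng/mL) was monitored kinetically by FLIPR fluorescence at 37 °C.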

In data set [3] the target is T2, CXCR4 (Jurkat cells expressing CXCR4) (Homo sapiens, UniProt P61073).
T2 construct: Jurkat cells expressing CXCR4; endogenous in cells; host or cells: Jurkat
T2 sequence (P61073 whole entry): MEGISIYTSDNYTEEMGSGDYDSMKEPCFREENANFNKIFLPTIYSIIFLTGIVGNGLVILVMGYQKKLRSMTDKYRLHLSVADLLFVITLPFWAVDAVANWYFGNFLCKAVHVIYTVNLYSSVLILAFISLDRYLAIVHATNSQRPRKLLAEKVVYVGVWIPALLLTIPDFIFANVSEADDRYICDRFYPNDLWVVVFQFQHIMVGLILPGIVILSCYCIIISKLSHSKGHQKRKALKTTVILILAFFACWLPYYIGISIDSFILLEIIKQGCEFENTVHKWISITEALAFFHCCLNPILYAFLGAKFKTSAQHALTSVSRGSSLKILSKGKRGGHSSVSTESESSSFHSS
The data set can be described thus: Chemokine (CXCL12-AF647) binding inhibition assay. As to conditions: CXCL12-AF647 25 ng/mL, read-out: IC50 CXCL-12 binding Jurkat. The essentials: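 Cells in HBSS, 20 mM HEPES, 0.2% BSA, pH 7.4, preincubated 15 min at room temperature with compound, then 25 ng/mL CXCL12-AF647 for 30 min. After washing and paraformaldehyde fixation, bound ligand read by flow cytometry; percent inhibition calculated from MFI relative to unlabeled and ligand-only controls.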

pIC50: −log10 of the molar value.

We go through 15 compounds from US11332470B2, “CXCR4 inhibitors and uses thereof” (X4 Pharmaceuticals, Inc., priority 2016, dated 2022).

T1 sequence (P61073 whole entry): as above

What is called Papp A→B is how fast a substance crosses the layer from the apical side. For orientation: Papp B→A means the apparent permeability from the basolateral to the apical side of a cell layer. As usually defined, the efflux ratio is the permeability from basolateral to apical divided by that in the opposite direction, in the common usage. For orientation: pIC50 means the negative decadic logarithm of the IC50, by convention in mol/L. As to `O=C1CN(c2c(CN3CCCC3c3ccccn3)nc3ccccn23)CCN1` (stereo not drawn) [Compound I-86], in data set [1], the Papp A→B at 90 min, 10 μM is 0.1 to 10 ×10⁻⁶ cm/s; the Papp B→A at 90 min, 10 μM fell in the range of 10 to 30 ×10⁻⁶ cm/s; the efflux ratio at 90 min, 10 μM fell in the range of 10 to 30. Besides, the pIC50 in data set [2] was at most 6.00. Also, the pIC50 in data set [3] was at most 6.00.
As for `Cc1cccnc1C1CCCN1Cc1nccn1Cc1ccncc1` (stereo not drawn) [Compound I-87], in data set [1], the Papp A→B at 90 min, 10 μM was in the range of 10 to 30 ×10⁻⁶ cm/s; the Papp B→A at 90 min, 10 μM was in the range of 10 to 30 ×10⁻⁶ cm/s; the efflux ratio at 90 min, 10 μM was in the range of 0.1 to 10. Also, the pIC50 in data set [2] is at most 6.00. Further, in data set [3], the pIC50 was 6.00 to 7.00.
Take `Cc1cccnc1C1CCCN1Cc1nccn1Cc1cccnc1` (stereo not drawn) [Compound I-88]: in data set [1], the Papp A→B at 90 min, 10 μM lay in the range of 10 to 30 ×10⁻⁶ cm/s; the Papp B→A at 90 min, 10 μM is 10 to 30 ×10⁻⁶ cm/s; the efflux ratio at 90 min, 10 μM was in the range of 0.1 to 10. Besides, the pIC50 in data set [2] was at most 6.00. Also, in data set [3], the pIC50 is 6.00 to 7.00.
Consider `Cc1cccnc1C1CCCN1Cc1nccn1Cc1ccccn1` (stereo not drawn) [Compound I-89], for which, in data set [1], the Papp A→B at 90 min, 10 μM fell in the range of 10 to 30 ×10⁻⁶ cm/s; the Papp B→A at 90 min, 10 μM was over 30 ×10⁻⁶ cm/s; the efflux ratio at 90 min, 10 μM fell in the range of 0.1 to 10. The pIC50 in data set [2] is at most 6.00. Also, the pIC50 in data set [3] is 6.00 to 7.00.
The matching figures for `c1ccc(C2CCCN2Cc2nc3ccccn3c2N2CCOCC2)nc1` (stereo not drawn) [Compound I-91]: over 30 ×10⁻⁶ cm/s, over 30 ×10⁻⁶ cm/s, 0.1 to 10, at most 6.00 and 6.00 to 7.00.
The matching figures for `Cc1cccnc1CN1CCCC1c1nccn1CC1CCN(C)CC1` (stereo not drawn) [Compound I-92]: 0.1 to 10 ×10⁻⁶ cm/s, 10 to 30 ×10⁻⁶ cm/s, 0.1 to 10, 6.00 to 7.00 and 7.00 to 11.00.
The matching figures for `c1ccc(OCc2c(CN3CCCC3c3ccccn3)nc3ccccn23)nc1` (stereo not drawn) [Compound I-94]: 10 to 30 ×10⁻⁶ cm/s, over 30 ×10⁻⁶ cm/s, 0.1 to 10, at most 6.00 and at most 6.00.
For the compound `c1ccc(N2CCN(c3c(CN4CCCC4c4ccccn4)nc4ccccn34)CC2)cc1` (stereo not drawn) [Compound I-96], in data set [1], the Papp A→B at 90 min, 10 μM was 10 to 30 ×10⁻⁶ cm/s; the Papp B→A at 90 min, 10 μM fell in the range of 10 to 30 ×10⁻⁶ cm/s; the efflux ratio at 90 min, 10 μM was in the range of 0.1 to 10. In data set [2], the pIC50 is at most 6.00. For the same compound, the pIC50 in data set [3] was 6.00 to 7.00.
In the case of `c1ccc(C2CCCN2Cc2nc3ccccn3c2N2CCN(c3ccccn3)CC2)nc1` (stereo not drawn) [Compound I-97], in data set [1], the Papp A→B at 90 min, 10 μM is over 30 ×10⁻⁶ cm/s; the Papp B→A at 90 min, 10 μM was over 30 ×10⁻⁶ cm/s; the efflux ratio at 90 min, 10 μM was in the range of 0.1 to 10. For the same compound, the pIC50 in data set [2] was 6.00 to 7.00. For the same compound, the pIC50 in data set [3] was 7.00 to 11.00.
For `FC(F)(F)CN1CCN(c2c(CN3CCCC3c3ccccn3)nc3ccccn23)CC1` (stereo not drawn) [Compound I-98], in data set [1], the Papp A→B at 90 min, 10 μM was over 30 ×10⁻⁶ cm/s; the Papp B→A at 90 min, 10 μM is over 30 ×10⁻⁶ cm/s; the efflux ratio at 90 min, 10 μM lay in the range of 0.1 to 10. In addition, the pIC50 in data set [2] is 6.00 to 7.00. In data set [3], the pIC50 was 7.00 to 11.00.
Consider `Cc1cccnc1C1CCCN1Cc1cn2c(C3OCC(N(C)C)CO3)cccc2n1` (stereo not drawn) [Compound I-99], for which, in data set [1], the Papp A→B at 90 min, 10 μM lay within 0.1 to 10 ×10⁻⁶ cm/s; the Papp B→A at 90 min, 10 μM was over 30 ×10⁻⁶ cm/s; the efflux ratio at 90 min, 10 μM is over 30. Besides, the pIC50 in data set [2] is 6.00 to 7.00. In addition, the pIC50 in data set [3] is 7.00 to 11.00.
For `CN1CCN(c2c(C3CCCN3Cc3ccccn3)nc3ccccn23)CC1` (stereo not drawn) [Compound I-101] the same measures were 0.1 to 10 ×10⁻⁶ cm/s, over 30 ×10⁻⁶ cm/s, 0.1 to 10, 6.00 to 7.00 and 7.00 to 11.00.
The matching figures for `CN1CCN(c2c(C3CCCN3Cc3ncccn3)nc3ccccn23)CC1` (stereo not drawn) [Compound I-102]: 0.1 to 10 ×10⁻⁶ cm/s, over 30 ×10⁻⁶ cm/s, over 30, at most 6.00 and 6.00 to 7.00.
For `Cc1cccnc1CN1CCCC1c1cn2c(N3CCN(C)CC3)cccc2n1` (stereo not drawn) [Compound I-103] the same measures were 0.1 to 10 ×10⁻⁶ cm/s, over 30 ×10⁻⁶ cm/s, 0.1 to 10, 7.00 to 11.00 and 7.00 to 11.00.
With `CN1CCN(c2cccc3nc(C4CCCN4Cc4ccccn4)[nH]c23)CC1` (stereo not drawn) [Compound I-104], in data set [1], the Papp A→B at 90 min, 10 μM was in the range of 0.1 to 10 ×10⁻⁶ cm/s; the Papp B→A at 90 min, 10 μM was over 30 ×10⁻⁶ cm/s; the efflux ratio at 90 min, 10 μM lay in the range of 0.1 to 10. In data set [2], the pIC50 was 6.00 to 7.00. For the same compound, the pIC50 in data set [3] is 7.00 to 11.00.
